Measured values published in patent publication US7193033B2, “Peptide having appetite stimulating activity” (Takeda Pharmaceutical Company Limited, priority 2001, dated 2007).
Ends that are not written are not given here.

Columns and labels:
GPR8 [1] = molecular target: T1, GPR8 (Homo sapiens, UniProt P48146); test: GTPγ S binding promoting activity on GPR8-expressed CHO cell membrane fraction; format: biochemical
T1 construct: expressed in transfected cells
Description: The [^35S]-guanosine 5′-(γ-thio)triphosphate binding promoting activity on a GPR8-expressed CHO cell membrane fraction was assayed by the following procedures. First, preparation of the membrane fraction is described. To 1×10^8 of CHO/GPR8 cells was added 10 ml of a homogenate buffer (10 mM NaHCO3, 5 mM EDTA, 0.5 mM PMSF, 1 μg/ml pepstatin, 4 μg/ml E64, 20 μg/ml leupeptin). The mixture was homogenized by using Polytron (12,000 rpm, 1 min.). The cell homogenate was subjected to centrifugation (1,000 g, 15 mins.) to obtain the supernatant. Next, the supernatant was subjected to ultracentrifugation (Beckman type 30 rotor, 30,000 rpm, 1 hour). The resulting precipitate was used as GPR8-expressed CHO cell membrane fraction.
The GTPγ S binding activity was assayed as follows. The GPR8-expressed CHO cell membrane fraction was diluted with a membrane dilution buffer (50 mM Tris-hydrochloride buffer (pH 7.4), 5 mM MgCl2, 150 mM NaCl, 1 μM GDP) to prepare a cell membrane fraction solution for assay having a protein level of […]. To 200 μl of the cell membrane fraction solution for assay were added 2 μl of 51.5 nM [^35S]-guanosine 5′-(γ-thio)triphosphate (NEN Co.) and a sample fluid. […] After washing twice with 1.5 ml of a wash buffer (50 mM Tris-hydrochloride buffer (pH 7.4), 5 mM MgCl2, 1 mM EDTA, 0.1% BSA), radioactivity of the filter was measured with a liquid scintillation counter. […]

GPR8 [2] = molecular target: T1, GPR8; test: Receptor binding test using [125I-Tyr10]-hGPR8L (1–23) and GPR8-expressed CHO cell membrane fraction; conditions: inhibition of [125I-Tyr10]-hGPR8L (1–23) binding; membrane fraction 5 μg/ml
Description: Receptor binding test was carried out using [^125I]-labeled hGPR8L (1–23) prepared as described in EXAMPLE 42 and the cell membrane fraction prepared from GPR8-expressed CHO cells prepared in a similar manner to the procedures described in EXAMPLE 6.
The cell membrane fraction prepared from human GPR8-expressed CHO cells was diluted with an assay buffer (25 mM Tris-HCl, 5 mM EDTA (ethylenediaminetetraacetic acid), 0.05% CHAPS (3-[(3-cholamidopropyl)dimethlammonio]-1-propanesulfonate), 0.1% BSA (bovine serum albumin), 0.25 mM PMSF (phenylmethylsulfonyl fluoride), 1 μg/ml pepstatin, 20 μg/ml leupeptin, pH 7.4) in various concentrations. Subsequently, 200 μl each of the dilution was dispensed in a polypropylene tst tube (Falcon 2053). […] After filtration, the residual radioactivity remained on the filter paper was measured with a γ-counter, and the specific binding (SB) was estimated by subtracting the non-specific binding from the total binding. […]
The receptor binding activity of the human and porcine homologue derivatives of the GPR8 ligand peptide, which synthesis was described in the specification, was determined s described in EXAMPLE 43, using the GPR8-expressed cell membrane fraction and [^125I-Tyr^10]-hGPR8L (1–23). […]

T1 sequence (P48146 whole entry): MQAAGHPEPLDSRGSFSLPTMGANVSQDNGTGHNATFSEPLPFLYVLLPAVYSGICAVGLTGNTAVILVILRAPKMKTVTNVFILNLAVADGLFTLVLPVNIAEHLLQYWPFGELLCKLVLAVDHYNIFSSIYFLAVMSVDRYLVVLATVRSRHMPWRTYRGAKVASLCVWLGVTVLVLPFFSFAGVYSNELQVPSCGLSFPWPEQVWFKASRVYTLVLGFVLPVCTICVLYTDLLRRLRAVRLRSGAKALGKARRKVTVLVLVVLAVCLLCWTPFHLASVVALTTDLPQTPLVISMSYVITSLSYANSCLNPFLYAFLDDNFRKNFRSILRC

Compound	EC50 (GPR8 [1]) [nM]	IC50 (GPR8 [2]) [nM]
H-WYKHVASPRYHTVGRAAG [hGPR8L(1–18), Trp-Tyr-Lys-His-Val-Ala-Ser-Pro-Arg-Tyr-His-Thr-Val-Gly-Arg-Ala-Ala-Gly]	> 10000	–
H-WYKHVASPRYHTVGRAAGLL [hGPR8L(1–20)]	–	0.2
CSCC[C@H](NC(=O)[C@H](CC(C)C)NC(=O)[C@H](CC(C)C)NC(=O)CNC(=O)[C@H](C)NC(=O)[C@H](C)NC(=O)[C@H](CCCNC(=N)N)NC(=O)CNC(=O)[C@@H](NC(=O)[C@@H](NC(=O)[C@H](Cc1c[nH]cn1)NC(=O)[C@H](Cc1ccc(O)cc1)NC(=O)[C@H](CCCNC(=N)N)NC(=O)[C@@H]1CCCN1C(=O)[C@H](CO)NC(=O)[C@H](C)NC(=O)[C@@H](NC(=O)[C@H](Cc1c[nH]cn1)NC(=O)[C@H](CCCCN)NC(=O)[C@H](Cc1ccc(O)cc1)NC(=O)[C@H](Cc1c[nH]c2ccccc12)NC(=O)OCC1c2ccccc2-c2ccccc21)C(C)C)[C@@H](C)O)C(C)C)C(=O)NCC(=O)N[C@@H](CC(C)C)C(=O)O [Fmoc-hGPR8L(1–23)]	–	0.2
